Results from ChEMBL document CHEMBL1125650, “Relationships between the structure of taxol analogues and their antimitotic activity” (J Med Chem, 1991).

Organism: Sus scrofa
Experiment: Ratio of the concentration leading to a 50% inhibition of the rate of pig brain microtubule disassembly to that of taxol (0.4 uM) was determined
Assay type: functional
For CC(=O)O[C@@]12CO[C@@H]1C[C@H](OC(=O)CCCC(=O)O)[C@@]1(C)C(=O)[C@H](OC(=O)CCCC(=O)O)C3=C(C)[C@@H](OC(=O)C(O)C(NC(=O)OC(C)(C)C)c4ccccc4)C[C@@](O)([C@@H](OC(=O)c4ccccc4)[C@H]21)C3(C)C (some centres not stated), the Ratio was 2.
For CC(=O)O[C@@]12CO[C@@H]1C[C@H](O)[C@@]1(C)C(=O)[C@H](O)C3=C(C)[C@@H](OC(=O)[C@@H](O)Cc4ccccc4)C[C@@](O)([C@@H](OC(=O)c4ccccc4)[C@H]21)C3(C)C, the Ratio was 3.5.
For CC(=O)O[C@@]12CO[C@@H]1C[C@H](O)[C@@]1(C)C(=O)[C@H](O)C3=C(C)[C@@H](OC(=O)CCc4ccccc4)C[C@@](O)([C@@H](OC(=O)c4ccccc4)[C@H]21)C3(C)C, the Ratio was 17.
With CC(=O)O[C@@]12CO[C@@H]1C[C@H](O)[C@@]1(C)C(=O)[C@H](O)C3=C(C)[C@@H](OC(=O)C(O)Cc4ccccc4)C[C@@](O)([C@@H](OC(=O)c4ccccc4)[C@H]21)C3(C)C (some centres not stated) the Ratio was 4.5.
In the case of CC(=O)O[C@@]12CO[C@@H]1C[C@H](O)[C@@]1(C)C(=O)[C@H](O)C3=C(C)[C@@H](OC(=O)[C@H](O)[C@@H](NS(=O)(=O)c4ccc(C)cc4)c4ccccc4)C[C@@](O)([C@@H](OC(=O)c4ccccc4)[C@H]21)C3(C)C, the Ratio is reported as 5.
CC(=O)O[C@@]12CO[C@@H]1C[C@H](O)[C@@]1(C)C(=O)[C@H](O)C3=C(C)[C@@H](OC(=O)[C@H](O)[C@@H](NC(=O)c4ccccc4)c4ccccc4)C[C@@](O)([C@@H](OC(=O)c4ccccc4)[C@H]21)C3(C)C showed a Ratio of 1.3.
Compound CC(=O)O[C@@]12CO[C@@H]1C[C@H](OC(=O)OCC(Cl)(Cl)Cl)[C@@]1(C)C(=O)[C@H](OC(=O)OCC(Cl)(Cl)Cl)C3=C(C)[C@@H](OC(=O)/C=C/c4ccccc4)C[C@@](O)([C@@H](OC(=O)c4ccccc4)[C@H]21)C3(C)C has a Ratio of 1000.
CC(=O)O[C@@]12CO[C@@H]1C[C@H](O)[C@@]1(C)C(=O)[C@H](O)C3=C(C)[C@@H](OC(=O)[C@H](NC(=O)OC(C)(C)C)[C@@H](O)c4ccccc4)C[C@@](O)([C@@H](OC(=O)c4ccccc4)[C@H]21)C3(C)C was tested, and the Ratio was 160.
With CC(=O)O[C@@]12CO[C@@H]1C[C@H](O)[C@@]1(C)C(=O)[C@H](O)C3=C(C)[C@@H](OC(=O)C(NC(=O)c4ccccc4)C(O)c4ccccc4)C[C@@](O)([C@@H](OC(=O)c4ccccc4)[C@H]21)C3(C)C (stereo in doubt; 14c) the Ratio was 10.
CC(=O)O[C@@]12CO[C@@H]1C[C@H](O)[C@@]1(C)C(=O)[C@H](O)C3=C(C)[C@@H](OC(=O)C(O)C(NC(=O)OC(C)(C)C)c4ccccc4)C[C@@](O)([C@@H](OC(=O)c4ccccc4)[C@H]21)C3(C)C (stereo in doubt; 13e) gave a Ratio of 1.8.
For CC(=O)O[C@H]1C(=O)[C@@]2(C)[C@H]([C@H](OC(=O)c3ccccc3)[C@]3(O)C[C@H](OC(=O)C(O)C(C)O)C(C)=C1C3(C)C)[C@]1(OC(C)=O)CO[C@@H]1C[C@@H]2O (some centres not stated), the Ratio was 60.
Work on CC(=O)O[C@@]12CO[C@@H]1C[C@H](O)[C@@]1(C)C(=O)[C@H](O)C3=C(C)[C@@H](OC(=O)C(O)C(NC(=O)CCCC(=O)O)c4ccccc4)C[C@@](O)([C@@H](OC(=O)c4ccccc4)[C@H]21)C3(C)C (some centres not stated) yielded a Ratio of 1.
Work on CC(=O)O[C@H]1C(=O)[C@@]2(C)[C@H]([C@H](OC(=O)c3ccccc3)[C@]3(O)C[C@H](OC(=O)[C@@H](NC(=O)c4ccccc4)[C@H](O)c4ccccc4)C(C)=C1C3(C)C)[C@]1(OC(C)=O)CO[C@@H]1C[C@@H]2O yielded a Ratio of 110.
Compound CC(=O)O[C@@]12CO[C@@H]1C[C@H](O)[C@@]1(C)C(=O)[C@H](O)C3=C(C)[C@@H](OC(=O)C(NS(=O)(=O)c4ccc(C)cc4)C(O)c4ccccc4)C[C@@](O)([C@@H](OC(=O)c4ccccc4)[C@H]21)C3(C)C (some centres not stated) has a Ratio of 15.
CC(=O)O[C@@]12CO[C@@H]1C[C@H](O)[C@@]1(C)C(=O)[C@H](O)C3=C(C)[C@@H](OC(=O)C(O)C(NC(=O)OC(C)(C)C)c4ccccc4)C[C@@](O)([C@@H](OC(=O)c4ccccc4)[C@H]21)C3(C)C (stereo in doubt; 13f) gave a Ratio of 4.3.
Compound CC(=O)O[C@@]12CO[C@@H]1C[C@H](O)[C@@]1(C)C(=O)[C@H](O)C3=C(C)[C@@H](OC(=O)/C=C/c4ccccc4)C[C@@](O)([C@@H](OC(=O)c4ccccc4)[C@H]21)C3(C)C has a Ratio of 23.
In the case of CC(=O)O[C@@]12CO[C@@H]1C[C@H](O)[C@@]1(C)C(=O)[C@H](O)C3=C(C)[C@@H](OC(=O)C(NC(=O)c4ccccc4)C(O)c4ccccc4)C[C@@](O)([C@@H](OC(=O)c4ccccc4)[C@H]21)C3(C)C (stereo in doubt; 14d), the Ratio is reported as 170.
Work on CC(=O)O[C@@]12CO[C@@H]1C[C@H](O)[C@@]1(C)C(=O)[C@H](O)C3=C(C)[C@@H](OC(=O)C(O)C(NC(=O)c4ccccc4)c4ccccc4)C[C@@](O)([C@@H](OC(=O)c4ccccc4)[C@H]21)C3(C)C (some centres not stated) yielded a Ratio of 1.3.
For CC(=O)O[C@H]1C(=O)[C@@]2(C)[C@H]([C@H](OC(=O)c3ccccc3)[C@]3(O)C[C@H](OC(=O)C(NC(=O)OC(C)(C)C)C(O)c4ccccc4)C(C)=C1C3(C)C)[C@]1(OC(C)=O)CO[C@@H]1C[C@@H]2O (stereo in doubt; 16c), the Ratio was 10.
Work on CC(=O)O[C@H]1C(=O)[C@@]2(C)[C@H]([C@H](OC(=O)c3ccccc3)[C@]3(O)C[C@H](OC(=O)[C@@H](O)[C@H](NC(=O)OC(C)(C)C)c4ccccc4)C(C)=C1C3(C)C)[C@]1(OC(C)=O)CO[C@@H]1C[C@@H]2O yielded a Ratio of 30.
Work on CC(=O)O[C@@]12CO[C@@H]1C[C@H](O)[C@@]1(C)C(=O)[C@H](O)C3=C(C)[C@@H](OC(=O)C(O)C(O)c4ccccc4)C[C@@](O)([C@@H](OC(=O)c4ccccc4)[C@H]21)C3(C)C (some centres not stated) yielded a Ratio of 3.
For CC(=O)O[C@@]12CO[C@@H]1C[C@H](O)[C@@]1(C)C(=O)[C@H](O)C3=C(C)[C@@H](OC(=O)CC(NC(=O)OC(C)(C)C)c4ccccc4)C[C@@](O)([C@@H](OC(=O)c4ccccc4)[C@H]21)C3(C)C (single isomer, unassigned; 10a), the Ratio was 2.3.
CC(=O)O[C@H]1C(=O)[C@@]2(C)[C@H]([C@H](OC(=O)c3ccccc3)[C@]3(O)C[C@H](OC(=O)C(O)C(N)c4ccccc4)C(C)=C1C3(C)C)[C@]1(OC(C)=O)CO[C@@H]1C[C@@H]2O (some centres not stated) showed a Ratio of 44.
CC(=O)O[C@@]12CO[C@@H]1C[C@H](O)[C@@]1(C)C(=O)[C@H](O)C3=C(C)[C@@H](OC(=O)[C@@H](O)[C@H](NC(=O)c4ccccc4)c4ccccc4)C[C@@](O)([C@@H](OC(=O)c4ccccc4)[C@H]21)C3(C)C gave a Ratio of 4.
For C/C=C/C(=O)O[C@H]1C[C@@]2(O)[C@@H](OC(=O)c3ccccc3)[C@@H]3[C@]4(OC(C)=O)CO[C@@H]4C[C@H](O)[C@@]3(C)C(=O)[C@H](OC(C)=O)C(=C1C)C2(C)C, the Ratio was 100.
Work on CC(=O)O[C@@]12CO[C@@H]1C[C@H](O)[C@@]1(C)C(=O)[C@H](O)C3=C(C)[C@@H](OC(=O)CC(NC(=O)OC(C)(C)C)c4ccccc4)C[C@@](O)([C@@H](OC(=O)c4ccccc4)[C@H]21)C3(C)C (single isomer, unassigned; 10b) yielded a Ratio of 4.1.
CC(=O)O[C@@]12CO[C@@H]1C[C@H](O)[C@@]1(C)C(=O)[C@H](O)C3=C(C)[C@@H](OC(=O)C(O)C(N)c4ccccc4)C[C@@](O)([C@@H](OC(=O)c4ccccc4)[C@H]21)C3(C)C (some centres not stated) showed a Ratio of 30.
